Data taken from patent publication US20110076339A1, “Colon Cleansing Method and Kit” (Kingston General Hospital, priority 2008, published 2011).

Experiment: Patient diary of bowel movements after laxative use
Type: in vivo, human
From the text: In patient tolerance studies described herein, treatment groups received an osmotic purgative on the evening before colonoscopy in split doses. Comparisons were made between the results of these osmotic purgatives. Also, a comparison was made between patients treated with osmotic purgative alone, and patients treated initially with stimulant laxative followed by osmotic purgative. Table III provides a summary of data gathered from diaries that were kept by 100 patients as they progressed through a colon cleansing regimen. Each patient recorded the time of the first and last bowel movement following consumption of a laxative, as well as the total number of bowel movements associated with consumption of a particular laxative.

[1] = 10 mg taken 2 nights before colonoscopy (e.g. at suppertime)
[2] = 10 mg taken 3 nights before colonoscopy (e.g. at suppertime)

Compound: CC(=O)Oc1ccc(C(c2ccc(OC(C)=O)cc2)c2ccccn2)cc1 [Bisacodyl, bisacodyl]
- Mean time to first BM ± standard deviation [1]: 8.6 ± 5.3 h
- Mean time to last BM ± standard deviation [1]: 16.5 ± 5.3 h
- Total number BM ± standard deviation [1]: 3.8 ± 2
- Mean time to first BM ± standard deviation [2]: 8.9 ± 5.1 h
- Mean time to last BM ± standard deviation [2]: 16.5 ± 5.1 h
- Total number BM ± standard deviation [2]: 3.4 ± 2
